According to article PMC9048745, “Physicochemical investigation of a novel curcumin diethyl γ-aminobutyrate, a carbamate ester prodrug of curcumin with enhanced anti-neuroinflammatory activity” (PLoS ONE, 2022):
Values after ≈ are worked out from the molar mass of the structure shown. Where two headings read alike, the source gives them in different places.

Columns and labels:
[1] = Solubility mimicking gastrointestinal pH, with and without 0.5% SLS; dose number (D0); type: physicochemical; details: for solubility at 1 h: thermodynamic from solid
Description: For solubility mimicking gastrointestinal pH, an excess amount of CUR-2GE (1 mg) was added to a vial containing 2 mL of buffer pH 1.2, 4.5 or 6.8 with and without a surfactant (0.5% SLS). The mixture was sonicated for 1 h before orbital shaking at 37°C at 100 rpm for 1 h. After that, the mixture was centrifuged at 25°C at 14,000 rpm for 10 min prior to UPLC analysis. Experiments were performed in triplicate. The dose number (D0) at different media was determined and the BSC solubility class was assigned. (see S1 Appendix).
S1 Appendix. Experimental procedures
The solubility category was classified according to USP [1] as very soluble (>1000 mg/mL), freely soluble (100-1000 mg/mL), soluble (33-100 mg/mL), sparingly soluble (10-33 mg/mL), slightly soluble (1-10 mg/mL), very slightly soluble (0.1-1 mg/mL) and practically […]
The percentage of CUR-2GE in the undissociated form at various pH values were calculated based on Henderson-Hasselbalch using Eq. 1:
%Undissociated form = 100 - antilog (pH-pKa) x 100 (1)
Where pH; pH value of the medium for solubilization, pKa; negative logarithm of the dissociation constant (Ka) of CUR-2GE with computed using the Marvin (Product version: 21.8.0) of ChemAxon (Budapest, Hungary) (http://www.chemaxon.com) accessed on June 2021.
The dose number (D0) was calculated to assign the BSC solubility class, the D0 for each pH buffer solution without surfactant was calculated using the following Eq. 2: […]
Where M0 is the highest dose strength (mg) of capsule equivalent to curcumin, the adopted dose of CUR-2GE is 927 mg equivalent to curcumin 500 mg dose. V0 is the initial gastric volume (≈250 mL), Cs is the saturation solubility of CUR-2GE in buffer solution without surfactant (mg/mL). Drugs with D0 < 1 in pH 1.2, 4.5 and 6.8 are considered as high solubility drugs. Drugs with D0 > 1 in any of the buffer solutions are classified as low solubility drugs.

[2] = system: NO production in LPS-stimulated BV-2 microglial cells; experiment: Nitric oxide assay (Griess reagent); type: cell-based, murine; details: 10 μM, 12 h pre-incubation, then 1 μg/mL LPS 24 h; compared with curcumin
Description: BV-2 microglial cells were plated in a 24-well plate at a density of 2 × 10^5 per well for 24 h. The cells were pre-incubated for 12 h with curcumin (10 μM), CUR-2GE (10 μM), medium (DMEM), or a vehicle (0.5% DMSO). The cells were then induced with 1 μg/mL LPS for 24 h. The culture medium samples were collected and analyzed for nitric oxide (NO) and cytokines (TNF- and IL-6) using NO and enzyme-linked immunoassay (ELISA) assays, respectively.
Nitric oxide (NO) production was determined by measuring nitrite, the NO metabolite, using Griess reagent. Briefly, the culture medium (100 μL) was added with 1% sulfanilamide (50 μL) and incubated for 5 min. Then, a solution of 0.1% N-(1-naphthyl)ethylenediamine dihydrochloride (50 μL) was added and incubated for 5 min. The absorbance was measured at 520 nm using the microplate reader, and the nitrite concentration was calculated against a calibration curve using NaNO₂ as a standard.

[3] = system: BV-2 microglial cells; experiment: In vitro cellular uptake (fluorescence microscopy); type: cell-based, murine; details: BV-2 cells, 4-h incubation, 20 μM and 100 μM, compared with curcumin
Description: BV-2 microglial cells were plated in a 96-well plate (Costar, NY, USA) at a density of 10,000 cells/well for 24 h. The cells were incubated in DMEM media without phenol red for 4 h in the presence of curcumin and CUR-2GE at concentrations of 20 μM and 100 μM. Then, the sample was washed with PBS and the fluorescence intensity was measured using a fluorescence microscope (Olympus IX51 inverted microscope, Tokyo, Japan).

[4] = Release study in human plasma at 37°C; type: in vitro ADME
Description: The amount of curcumin released from CUR-2GE in human plasma was determined at 37°C at various time points. A stock solution of CUR-2GE (100 μg/mL) in the diluent was prepared and diluted with pre-incubated human plasma at 37°C for 5 min to obtain the final concentration of 5 μg/mL. The mixture was incubated at 37°C for 5, 10, 20, 30 and 60 min and each aliquot (300 μL) was added with 300 μL of acetonitrile to stop the reaction and further centrifugated at 4°C at 14,000 rpm for 30 min. The concentration of CUR-2GE in the supernatant was analyzed using UPLC [19, 26]. Experiments were carried out in triplicates. The initial time point (0 min) was prepared by adding 300 μL acetonitrile to the pre-incubated human plasma. The percent peak area of CUR-2GE and its hydrolytic products was plotted against incubation time. The k and t1/2 values were determined using the linear pseudo-first-order model.

[5] = system: BV-2 microglial cells; experiment: Cytotoxicity (MTT assay); type: cell-based, murine; details: BV-2 cells, 24 h
Description: BV-2 microglial cells were cultured in DMEM supplemented with 10% fetal bovine serum, 2 mM L-glutamine, 1% penicillin/streptomycin (100 units/mL penicillin and 100 μg/mL streptomycin) at 37°C in 5% CO2. BV-2 microglial cells were plated in a 24-well plate at a density of 2 × 10^5 cells/well for 24 h. Various concentrations at 0, 1.25, 2.5, 5, 10, or 20 μM of curcumin or CUR-2GE were determined for a non-toxic concentration. After 24 h, cell viability was assessed by an MTT assay. The media was removed and replaced with an MTT solution in PBS (0.5 mg/mL). After 3-h incubation, the MTT solution was discarded, and formazan crystals formed after the reaction was dissolved in DMSO. The absorbance was then read at 540 nm using a microplate reader (CLARIOstar®, BMG Labtech, Ortenberg, Germany). The percentage of cell viability was expressed relative to the control cells. In addition, the cell viability of BV-2 microglial cells treated with LPS and a combination of LPS and the test compounds was also determined.

[6] = M0 927 mg, V0 250 mL, Cs at 37°C without 0.5% SLS

For `CCOC(=O)CCCNC(=O)Oc1ccc(/C=C/C(=O)/C=C(O)/C=C/c2ccc(OC(=O)NCCCC(=O)OCC)c(OC)c2)cc1OC` [CUR-2GE, Curcumin diethyl γ-aminobutyrate], which “Solubility, buffer pH 1.2” value ([1]; 37°C, without SLS, <LOQ refers to less than 0.05 μg/mL) is on record?
The value was “<LOQ”.

What about the “D0 x 10^3 (dose number), buffer pH 1.2” value [1, 6] of the same compound?
The value was 74.16 x 10^3.

And the “D0 x 10^3 (dose number), buffer pH 4.5” value [1, 6]?
The value was 5.80 x 10^3.

And the “D0 x 10^3 (dose number), buffer pH 6.8” value [1, 6]?
The value was 10.89 x 10^3.

What about the “degradation during solubility test” value ([1]; all media except buffer pH 1.2 with SLS) of the same compound?
Its value is “less than 10%”.

What about the “degradation during solubility test” value ([1]; buffer pH 1.2 with SLS, 37°C) of the same compound?
Its value is “more than 10%”.

What about the solubility at 1 h ([1]; buffer pH 4.5 with 0.5% SLS, pH 4.5, aqueous with cosolvent or surfactant or cyclodextrin, 37°C + 0.5% SLS, read-out: Solubility, buffer pH 4.5) of the same compound?
Its solubility at 1 h is 23.35 ± 0.18 µg/mL.

And the solubility at 1 h ([1]; buffer pH 4.5 without SLS, pH 4.5, aqueous buffer, 37°C, without SLS, read-out: Solubility, buffer pH 4.5)?
Its solubility at 1 h is 0.64 ± 0.51 µg/mL (≈ 0.937 µM).

And the solubility at 1 h ([1]; buffer pH 6.8 with 0.5% SLS, pH 6.8, aqueous with cosolvent or surfactant or cyclodextrin, 37°C + 0.5% SLS, read-out: Solubility, buffer pH 6.8)?
The solubility at 1 h was 148 ± 38.5 µg/mL.

And the solubility at 1 h ([1]; buffer pH 6.8 without SLS, pH 6.8, aqueous buffer, 37°C, without SLS, read-out: Solubility, buffer pH 6.8)?
The solubility at 1 h was 0.34 ± 0.5 µg/mL (≈ 0.498 µM).

And the solubility at 1 h ([1]; buffers pH 1.2, 4.5 and 6.8 without surfactant, aqueous buffer, pH 1.2-6.8, 37°C, without SLS, read-out: Solubility in buffers at all tested pH)?
The solubility at 1 h was < 1 µg/mL.

What about the “D0 (dose number) in buffers at all tested pH” value ([1]; pH 1.2-6.8, 37°C, without SLS) of the same compound?
The value was > 1.

And the “inhibition of NO production” value [2]?
Its value is “to a greater extent than curcumin”.

What about the “cellular uptake (fluorescence intensity)” value [3] of the same compound?
Its value is “higher fluorescence intensity than curcumin”.

And the “rate in human plasma lower than that in buffer pH 7.4” value [4]?
Its value is “approximately 8.7 fold”.

And the “k, pseudo-first-order hydrolysis” value ([4]; human plasma)?
Its value is 1.76 ± 0.30 h⁻¹.

And the “time for sequential conversion to CUR-1GE and curcumin in plasma” value ([4]; human plasma)?
Its value is ≤ 1 h.

And the half-life at 5 μg/mL ([4]; human plasma, read-out: t1/2, hydrolysis (converted))?
The half-life at 5 μg/mL was 24 ± 4.8 min.

What about the “non-toxic concentrations (no cytotoxicity)” value [5] of the same compound?
The value was ≤ 10 µM.
